Reference: article PMC9395446, “First-in-human phase 1/1b study to evaluate sitravatinib in patients with advanced solid tumors” (Investigational New Drugs, 2022)
Values joined by “and” are separate entries in the source; they are usually repeats but may differ in a detail not shown here. Equal entries are not always repeated. Where two headings read alike, the source gives them in different places.

How the values were obtained:
[1] = system: target RTKs, including AXL, MERTK, VEGF-R, KIT and MET; settings: read-out: Biochemical half-maximal inhibitory concentration, range; against target RTKs; cited from earlier work
[2] = Plasma pharmacokinetics after single and multiple oral doses (noncompartmental analysis); type: in vivo, human; settings: for Cmax / Tmax / AUC / AUC(0-t) / AUC(0-inf) / Vd/F / half-life: human, plasma; for AUC(0-t): read-out: AUClast, geometric mean (CV%); for AUC(0-inf): read-out: AUC∞, geometric mean (CV%); for Vd/F: read-out: Vz/F, geometric mean (CV%)
Procedure: In the PK lead-in period, patients received a single oral dose of sitravatinib (10–200 mg) under fasted conditions with at least 200 mL of water, followed by PK sample collection for 3–7 days, depending on emerging PK information. After the PK lead-in period, patients commenced the daily regimen planned for their cohort. Blood samples were collected pre-dose and 0.5 (for 10 mg only), 1, 2, 4, 6, 8, 12, 24, 36, 48, 72 and 168 (for 20–200 mg dose levels) h post-dose from patients following a single oral dose, and at pre-dose, 0.5, 1, 2, 4, 6, 8, 12 and 24 h post-dose following multiple oral doses for the 10–200 mg levels.
PK samples were collected after a single dose during the PK lead-in period and following multiple oral doses during the study. Plasma PK samples were assayed for quantification of sitravatinib. The lower limit of quantification was 0.05 ng/mL. PK parameters were determined using a noncompartmental analysis approach including maximum (peak) concentration (Cmax), time to reach Cmax following drug administration (tmax), area under the plasma concentration–time curves (AUCs), apparent total clearance of the drug from plasma after oral administration, apparent volume of distribution during the terminal phase after administration and terminal elimination half-life (t1/2). PD effects were examined by analyzing VEGF-A ligand and soluble (s)-VEGF-R2 levels in patients’ plasma samples collected before and after sitravatinib administration.

[3] = 200 mg QD, Cycle 1 Day 15, single patient result

COCCNCc1ccc(-c2cc3nccc(Oc4ccc(NC(=O)C5(C(=O)Nc6ccc(F)cc6)CC5)cc4F)c3s2)nc1 [sitravatinib, Sitravatinib]
IC50 [1]: 1.5 to 20 nM | CL/F at steady state, geometric mean (CV%) ([2]; 10 mg QD, Cycle 1 Day 8): 42.5 (42.8); 2 L/h | Cav,ss, geometric mean (CV%) ([2]; 10 mg QD, Cycle 1 Day 8): 9.81 (42.8); 2 ng/mL | CL/F at steady state, geometric mean (CV%) ([2]; 20 mg QD, Cycle 1 Day 15): 41.2 (6.4); 3 L/h | Cav,ss, geometric mean (CV%) ([2]; 20 mg QD, Cycle 1 Day 15): 20.2 (6.4); 3 ng/mL | CL/F at steady state, geometric mean (CV%) ([2]; 40 mg QD, Cycle 1 Day 15): 64.6 (156.5); 5 L/h | Cav,ss, geometric mean (CV%) ([2]; 40 mg QD, Cycle 1 Day 15): 25.8 (156.5); 5 ng/mL | CL/F at steady state, geometric mean (CV%) ([2]; 80 mg QD, Cycle 1 Day 15): 65.7 (104.9); 5 L/h | Cav,ss, geometric mean (CV%) ([2]; 80 mg QD, Cycle 1 Day 15): 50.7 (104.9); 5 ng/mL | CL/F at steady state, geometric mean (CV%) ([2]; 110 mg QD, Cycle 1 Day 15): 48.9 (44.5); 3 L/h | Cav,ss, geometric mean (CV%) ([2]; 110 mg QD, Cycle 1 Day 15): 93.7 (44.5); 3 ng/mL | Interpatient variability for Cmax and AUCτ,ss ([2]; 120 mg QD): ~ 60% | CL/F at steady state, geometric mean (CV%) ([2]; 120 mg QD, Cycle 1 Day 15): 75.0 (59.1); 3 L/h | Cav,ss, geometric mean (CV%) ([2]; 120 mg QD, Cycle 1 Day 15): 66.7 (59.1); 3 ng/mL | CL/F at steady state, geometric mean (CV%) ([2]; 150 mg QD, Cycle 1 Day 15): 68.8 (46.5); 18 L/h | Cav,ss, geometric mean (CV%) ([2]; 150 mg QD, Cycle 1 Day 15): 90.9 (46.5); 18 ng/mL | CL/F at steady state [2, 3]: 48.4 (NA); 1 L/h | Cav,ss [2, 3]: 172 (NA); 1 ng/mL | Time by which steady-state appeared to be reached ([2]; QD dosing): cycle 1 day 8 | Cmax ([2]; oral, 10 mg, 10 mg QD, Cycle 1 Day 8, read-out: Cmax,ss, geometric mean (CV%)): 11.4 ng/mL | Tmax ([2]; oral, 10 mg, 10 mg QD, Cycle 1 Day 8, read-out: tmax,ss, median (min–max)): 2 h | Cmax ([2]; oral, 10 mg, single dose 10 mg, read-out: Cmax, geometric mean (CV%)): 3.54 ng/mL | Tmax ([2]; oral, 10 mg, single dose 10 mg, read-out: tmax, median (min–max)): 5.03 h | Cmax ([2]; oral, 20 mg, 20 mg QD, Cycle 1 Day 15, read-out: Cmax,ss, geometric mean (CV%)): 23.7 ng/mL | Tmax ([2]; oral, 20 mg, 20 mg QD, Cycle 1 Day 15, read-out: tmax,ss, median (min–max)): 8.13 h | Cmax ([2]; oral, 20 mg, single dose 20 mg, read-out: Cmax, geometric mean (CV%)): 5.71 ng/mL | Tmax ([2]; oral, 20 mg, single dose 20 mg, read-out: tmax, median (min–max)): 8.04 h | Cmax ([2]; oral, 40 mg, 40 mg QD, Cycle 1 Day 15, read-out: Cmax,ss, geometric mean (CV%)): 32.5 ng/mL | Tmax ([2]; oral, 40 mg, 40 mg QD, Cycle 1 Day 15, read-out: tmax,ss, median (min–max)): 4 h | Cmax ([2]; oral, 40 mg, single dose 40 mg, read-out: Cmax, geometric mean (CV%)): 11.8 ng/mL | Tmax ([2]; oral, 40 mg, single dose 40 mg, read-out: tmax, median (min–max)): 4.05 h | Cmax ([2]; oral, 80 mg, 80 mg QD, Cycle 1 Day 15, read-out: Cmax,ss, geometric mean (CV%)): 69.2 ng/mL | Tmax ([2]; oral, 80 mg, 80 mg QD, Cycle 1 Day 15, read-out: tmax,ss, median (min–max)): 4.01 h | Cmax ([2]; oral, 80 mg, single dose 80 mg, read-out: Cmax, geometric mean (CV%)): 31.7 ng/mL | Tmax ([2]; oral, 80 mg, single dose 80 mg, read-out: tmax, median (min–max)): 6 h | Cmax ([2]; oral, 110 mg, 110 mg QD, Cycle 1 Day 15, read-out: Cmax,ss, geometric mean (CV%)): 119 ng/mL | Tmax ([2]; oral, 110 mg, 110 mg QD, Cycle 1 Day 15, read-out: tmax,ss, median (min–max)): 2 h | Cmax ([2]; oral, 110 mg, single dose 110 mg, read-out: Cmax, geometric mean (CV%)): 49.1 ng/mL | Tmax ([2]; oral, 110 mg, single dose 110 mg, read-out: tmax, median (min–max)): 3.02 h | Cmax ([2]; oral, 120 mg, 120 mg QD, Cycle 1 Day 15, read-out: Cmax,ss, geometric mean (CV%)): 80.4 ng/mL | Tmax ([2]; oral, 120 mg, 120 mg QD, Cycle 1 Day 15, read-out: tmax,ss, median (min–max)): 4 h | Cmax ([2]; oral, 120 mg, single dose 120 mg, read-out: Cmax, geometric mean (CV%)): 23.8 ng/mL | Tmax ([2]; oral, 120 mg, single dose 120 mg, read-out: tmax, median (min–max)): 8.87 h | Cmax ([2]; oral, 150 mg, 150 mg QD, Cycle 1 Day 15, read-out: Cmax,ss, geometric mean (CV%)): 114 ng/mL | Tmax ([2]; oral, 150 mg, 150 mg QD, Cycle 1 Day 15, read-out: tmax,ss, median (min–max)): 7.83 h | Cmax ([2]; oral, 150 mg, single dose 150 mg, read-out: Cmax, geometric mean (CV%)): 69.3 ng/mL | Tmax ([2]; oral, 150 mg, single dose 150 mg, read-out: tmax, median (min–max)): 6 h | Cmax ([2]; oral, 200 mg, 200 mg QD, Cycle 1 Day 15, single patient result, read-out: Cmax,ss): 221 ng/mL | Tmax ([2]; oral, 200 mg, 200 mg QD, Cycle 1 Day 15, single patient result, read-out: tmax,ss, median (min–max)): 10 h | Cmax ([2]; oral, 200 mg, single dose 200 mg, read-out: Cmax, geometric mean (CV%)): 85 ng/mL | Tmax ([2]; oral, 200 mg, single dose 200 mg, read-out: tmax, median (min–max)): 5.94 h | AUC ([2]; oral, 10 mg QD, Cycle 1 Day 8, read-out: AUCτ,ss, geometric mean (CV%)): 235 ng·h/mL | AUC ([2]; oral, 20 mg QD, Cycle 1 Day 15, read-out: AUCτ,ss, geometric mean (CV%)): 486 ng·h/mL | AUC ([2]; oral, 40 mg QD, Cycle 1 Day 15, read-out: AUCτ,ss, geometric mean (CV%)): 619 ng·h/mL | AUC ([2]; oral, 80 mg QD, Cycle 1 Day 15, read-out: AUCτ,ss, geometric mean (CV%)): 1220 ng·h/mL | AUC ([2]; oral, 110 mg QD, Cycle 1 Day 15, read-out: AUCτ,ss, geometric mean (CV%)): 2250 ng·h/mL | AUC ([2]; oral, 120 mg QD, Cycle 1 Day 15, read-out: AUCτ,ss, geometric mean (CV%)): 1600 ng·h/mL | AUC ([2]; oral, 150 mg QD, Cycle 1 Day 15, read-out: AUCτ,ss, geometric mean (CV%)): 2180 ng·h/mL | AUC ([2]; oral, 200 mg QD, Cycle 1 Day 15, single patient result, read-out: AUCτ,ss): 4130 ng·h/mL | AUC(0-t) ([2]; oral, single dose 10 mg): 149 ng·h/mL | AUC(0-inf) ([2]; oral, single dose 10 mg): 165 ng·h/mL | Vd/F ([2]; oral, single dose 10 mg): 3720 L | half-life ([2]; oral, single dose 10 mg, read-out: t1/2, arithmetic mean (CV%) (converted)): 43.6 h | AUC(0-t) ([2]; oral, single dose 20 mg): 300 ng·h/mL | AUC(0-inf) ([2]; oral, single dose 20 mg): 501 ng·h/mL | Vd/F ([2]; oral, single dose 20 mg): 2500 L | half-life ([2]; oral, single dose 20 mg, read-out: t1/2, arithmetic mean (CV%) (converted)): 47 h | AUC(0-t) ([2]; oral, single dose 40 mg): 509 ng·h/mL | AUC(0-inf) ([2]; oral, single dose 40 mg): 478 ng·h/mL | Vd/F ([2]; oral, single dose 40 mg): 5610 L | half-life ([2]; oral, single dose 40 mg, read-out: t1/2, arithmetic mean (CV%) (converted)): 46.5 h | AUC(0-t) ([2]; oral, single dose 80 mg): 1430 ng·h/mL | AUC(0-inf) ([2]; oral, single dose 80 mg): 1540 ng·h/mL | Vd/F ([2]; oral, single dose 80 mg): 3360 L | half-life ([2]; oral, single dose 80 mg, read-out: t1/2, arithmetic mean (CV%) (converted)): 46.2 h | AUC(0-t) ([2]; oral, single dose 110 mg): 2030 ng·h/mL | AUC(0-inf) ([2]; oral, single dose 110 mg): 2920 ng·h/mL | Vd/F ([2]; oral, single dose 110 mg): 2410 L | half-life ([2]; oral, single dose 110 mg, read-out: t1/2, arithmetic mean (CV%) (converted)): 44.7 h | AUC(0-t) ([2]; oral, single dose 120 mg): 1210 ng·h/mL | AUC(0-inf) ([2]; oral, single dose 120 mg): 1320 ng·h/mL | Vd/F ([2]; oral, single dose 120 mg): 6370 L | half-life ([2]; oral, single dose 120 mg, read-out: t1/2, arithmetic mean (CV%) (converted)): 49.3 h | AUC(0-t) ([2]; oral, single dose 150 mg): 2940 ng·h/mL | AUC(0-inf) ([2]; oral, single dose 150 mg): 3560 ng·h/mL | Vd/F ([2]; oral, single dose 150 mg): 2510 L | half-life ([2]; oral, single dose 150 mg, read-out: t1/2, arithmetic mean (CV%) (converted)): 42.1 h | AUC(0-t) ([2]; oral, single dose 200 mg): 3300 ng·h/mL | AUC(0-inf) ([2]; oral, single dose 200 mg): 4000 ng·h/mL | Vd/F ([2]; oral, single dose 200 mg): 3660 L | half-life ([2]; oral, single dose 200 mg, read-out: t1/2, arithmetic mean (CV%) (converted)): 51.5 h | Tmax ([2]; po, multiple oral 10–150 mg QD, fasting, read-out: Median tmax,ss, range across dose levels): 2 to 8.13 h | Tmax ([2]; po, single oral 10–200 mg, fasting, read-out: Median tmax, range across dose levels): 3.02 to 8.87 h | half-life ([2]; single oral 10–200 mg, fasting, read-out: Arithmetic mean terminal elimination t1/2, range across dose levels): 42.1 to 51.5 h | AUCτ,ss accumulation ratio, range ([2]; multiple QD doses): 2.13–8.34 | Cmax,ss accumulation ratio, range ([2]; multiple QD doses): 1.82–6.89 | Dose proportionality of exposure (Cmax and AUCs) ([2]; single and multiple doses 10–200 mg, power model): approximately dose-proportional | CL/F, geometric mean (CV%) ([2]; single dose 10 mg): 60.5 (58.3); 3 L/h | CL/F, geometric mean (CV%) ([2]; single dose 20 mg): 39.9 (63.4); 3 L/h | CL/F, geometric mean (CV%) ([2]; single dose 40 mg): 83.7 (194.6); 4 L/h | CL/F, geometric mean (CV%) ([2]; single dose 80 mg): 52.0 (104.1); 7 L/h | CL/F, geometric mean (CV%) ([2]; single dose 110 mg): 37.6 (61.0); 3 L/h | CL/F, geometric mean (CV%) ([2]; single dose 120 mg): 91.2 (109.5); 4 L/h | CL/F, geometric mean (CV%) ([2]; single dose 150 mg): 42.1 (63.7); 12 L/h | CL/F, geometric mean (CV%) ([2]; single dose 200 mg): 50.0 (126.1); 3 L/h | Peak to trough ratio (PTR) in plasma at steady state ([2]; steady state): 1.5–2.1 fold and 1.5- to 2.1 fold
